Assay results as given in PubChem BioAssay (NCI).
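Test compounds were applied to cells in 96-well plates for 48 hours at 5 doses. Abbreviation: GI50, concentration required for 50% inhibition of growth. The concentration for full growth arrest is given as TGI.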

Legend:
Assay in all cases: NCI-60 cell line screen, 48 h
SNB-19 CNS = test system: SNB-19 CNS
HT29 colon = test system: HT29 colon
M14 melanoma = test system: M14 melanoma
RXF 393 renal = test system: RXF 393 renal
786-0 renal = test system: 786-0 renal
KM12 colon = test system: KM12 colon
HCT-116 colon = test system: HCT-116 colon
SF-268 CNS = test system: SF-268 CNS
HCC-2998 colon = test system: HCC-2998 colon
HL-60(TB) leukemia = test system: HL-60(TB) leukemia

Compound | TGI (SNB-19 CNS) [µM] | TGI (HT29 colon) [µM] | TGI (M14 melanoma) [µM] | TGI (RXF 393 renal) [µM] | TGI (786-0 renal) [µM] | TGI (KM12 colon) [µM] | TGI (HCT-116 colon) [µM] | TGI (SF-268 CNS) [µM] | TGI (HCC-2998 colon) [µM] | TGI (HL-60(TB) leukemia) [µM] | GI50 (SNB-19 CNS) [µM] | GI50 (HT29 colon) [nM] | GI50 (M14 melanoma) [µM] | GI50 (RXF 393 renal) [nM] | GI50 (786-0 renal) [nM] | GI50 (KM12 colon) [nM] | GI50 (HL-60(TB) leukemia) [µM] | GI50 (HCT-116 colon) [nM] | GI50 (SF-268 CNS) [µM] | GI50 (HCC-2998 colon) [µM]
O=C(O)c1nnsc1COCc1ccccc1 | > 100 | > 100 | > 100 | > 100 | > 100 | > 100 | > 100 | > 100 | – | – | – | – | – | – | – | – | – | – | – | –
c1cncc(C2c3[nH]c4ccccc4c3CCN2CCN2CCCCC2)c1 (stereo not given) | > 100 | > 100 | 32.3 | – | > 100 | > 100 | > 100 | > 100 | > 100 | > 100 | – | – | – | – | – | – | – | – | – | –
CC[C@@]1(OC(=O)CCC(=O)O)C(=O)OCc2c1cc1n(c2=O)Cc2cc3ccccc3nc2-1 | > 43 | > 33.6 | 1.41 | 1.53 | 0.394 | 3.2 | – | > 60.9 | 4.29 | 0.449 | – | – | – | – | – | – | – | – | – | –
CCCN(CCC)c1c([N+](=O)[O-])cc(S(N)(=O)=O)cc1[N+](=O)[O-] | 41.3 | 34 | 30.9 | – | 30.4 | 34.3 | 33.8 | 32.8 | 33.2 | – | – | – | – | – | – | – | – | – | – | –
O=[N+]([O-])/C=C\c1ccc2c(c1)OCO2 | 30.8 | 4.89 | 4.77 | 3.1 | 3.52 | 4.43 | 2.95 | 22.4 | – | 46.5 | 13.1 | 2070 | 2.08 | 1660 | 1840 | 2040 | 10.2 | 1420 | 10.5 | –
CN(C)CCNC(=O)c1cccc(CO)c1[N+](=O)[O-] | > 100 | > 100 | > 100 | – | > 100 | > 100 | > 100 | > 100 | > 100 | > 100 | – | – | – | – | – | – | – | – | – | –
ClCCn1cnc2c(SCc3ccccc3)ncnc21 | > 100 | > 100 | > 100 | 63.5 | 19.7 | > 100 | 38.4 | > 100 | – | 68.3 | 2.61 | 872 | 7.04 | 11400 | 1050 | 1040 | 4.68 | 381 | 1.49 | –
CCOC(=O)c1c2ccc(/C=C/C(=O)OC)ccc-2c(C(=O)OCC)c1N | > 100 | > 100 | > 100 | > 100 | > 100 | > 100 | – | 9.68 | > 100 | > 100 | – | – | – | – | – | – | – | – | – | –
Cc1ccc(N2C(=O)C(Cl)=C(Nc3cccc(O)c3)C2=O)cc1Cl | 65.5 | – | 32.3 | 22.2 | 52 | 31.6 | 27.8 | 37.2 | 29.6 | – | 23.3 | – | 17.6 | 549 | 19300 | 17000 | – | 13900 | 18.3 | 14.5
COc1cccc2c(=O)c3c(sc12)c(NCCCN)nc1ccccc13 | 3.04 | 2.99 | – | 2.96 | 3.14 | 3.21 | – | 3.32 | 3.26 | 3.94 | 1.61 | 1410 | – | 1530 | 1650 | 1620 | 1.98 | – | 1.48 | 1.72
